Assay results as given in ChEMBL document CHEMBL1138219 (J Med Chem, 2006).

Key:
Assay type in all cases: cell-based
[1] = Cytotoxicity against human DU145 cell line; settings: DU-145 cells
[2] = Cytotoxicity against human UACC62 cell line; settings: UACC-62 cells
[3] = Cytotoxicity against human OVCAR-3 cell line; settings: OVCAR-3 cells
[4] = Cytotoxicity against human SN12C cell line; settings: SN12C cells
[5] = Cytotoxicity against human HCT116 cell line; settings: HCT-116 cells
[6] = Cytotoxicity against human SF539 cell line; settings: SF-539 cells
[7] = Cytotoxicity against human HOP62 cell line; settings: HOP-62 cells
[8] = Cytotoxicity against human MDA-MB-435 cell line; settings: MDA-MB-435 cells

SMILES | GI50 [1] [µM] | GI50 [2] [µM] | GI50 [3] [µM] | GI50 [4] [µM] | GI50 [5] [µM] | GI50 [6] [µM] | GI50 [7] [µM] | GI50 [8] [µM]
COc1cc2c(c(OC)c1OC)C(=O)c1c-2n(CCCN)c(=O)c2cc([N+](=O)[O-])ccc12 | 1.15 | 6.61 | 1.05 | 2.09 | 0.138 | 1.35 | 0.676 | 1.07
COc1cc2c(c(OC)c1OC)-c1c(c3ccc([N+](=O)[O-])cc3c(=O)n1CCCN=[N+]=[N-])C2=O | 70.8 | 32.4 | 45.7 | 30.2 | 14.1 | 13.5 | 15.5 | > 100
NCCCn1c2c(c3ccc([N+](=O)[O-])cc3c1=O)C(=O)c1cc3c(cc1-2)OCO3 | < 0.01 | 0.017 | 0.302 | < 0.01 | < 0.01 | < 0.01 | < 0.01 | 0.025
COc1cc2c(cc1OC)[C@@H]1[C@H](C2=O)c2ccc([N+](=O)[O-])cc2C(=O)N1CCCBr (relative stereo) | 14.5 | > 100 | 2.04 | 7.59 | 4.57 | 11.7 | 13.8 | 2.82
COc1cc2c(c(OC)c1OC)C(=O)c1c-2n(CCCN=[N+]=[N-])c(=O)c2cc([N+](=O)[O-])ccc12 | > 100 | 39.8 | > 100 | > 100 | 36.3 | 38.9 | 30.9 | > 100
COc1cccc2c1-c1c(c3ccc([N+](=O)[O-])cc3c(=O)n1CCCCl)C2=O |  | 2.4 | 50.1 | 15.8 | 2.45 |  | 5.5 | 50.1
COc1ccc2c(c1OC)-c1c(c3ccc([N+](=O)[O-])cc3c(=O)n1CCCN=[N+]=[N-])C2=O | 4.9 | 4.57 | 56.2 | 11.5 | 2.95 | 5.24 | 5.01 | 72.4
COc1ccc2c(c1)C(=O)c1c-2n(CCCN)c(=O)c2cc([N+](=O)[O-])ccc12 |  | < 0.01 |  | < 0.01 | < 0.01 | < 0.01 | < 0.01 | 
COc1ccc2c(c1)C(=O)c1c-2n(CCCN=[N+]=[N-])c(=O)c2cc([N+](=O)[O-])ccc12 | < 0.001 |  | 0.155 |  | < 0.001 | < 0.001 | < 0.001 | 0.251
COc1cc2c(c(OC)c1OC)-c1c(c3ccc([N+](=O)[O-])cc3c(=O)n1CCCBr)C2=O |  | 30 | > 100 | 19.5 | 18.6 | 4.47 | 15.8 | > 100
COc1cc2c(cc1OC)-c1c(c3ccc([N+](=O)[O-])cc3c(=O)n1CCCN=[N+]=[N-])C2=O | 87.1 | 51.3 | > 100 | 46.8 | 31.6 | 36.3 | 29.5 | > 100
COc1ccc2c(c1OC)-c1c(c3ccc([N+](=O)[O-])cc3c(=O)n1CCCBr)C2=O |  | 18.2 | > 100 | 36.3 | 19.1 |  | 21.9 | 
COc1cc2c(cc1OC)-c1c(c3ccc([N+](=O)[O-])cc3c(=O)n1CCCBr)C2=O | 24.5 | 2.82 | 70.8 | 4.27 | 4.27 | 10.5 | 20.9 | 25.1
COc1cc2c(cc1OC)-c1c(c3ccc([N+](=O)[O-])cc3c(=O)n1CCCN)C2=O | 0.676 | 2.51 | 8.13 | 0.851 | 0.589 | 0.005 | 1.55 | 6.46
COc1cc2c(c(OC)c1OC)C(=O)[C@@H]1c3ccc([N+](=O)[O-])cc3C(=O)N(CCCBr)[C@H]21 (relative stereo) | 1.02 | < 0.01 | < 0.01 | 0.257 | < 0.01 | 0.468 | < 0.01 | < 0.01
COc1cc2c(c(OC)c1OC)-c1c(c3ccc([N+](=O)[O-])cc3c(=O)n1CCCN)C2=O | 7.24 | 9.12 | 10.7 | 3.98 | 0.832 | 1.38 | 0.933 | 0.871
COc1ccc2c(c1OC)-c1c(c3ccc([N+](=O)[O-])cc3c(=O)n1CCCN)C2=O | 0.832 | 1.1 | 14.1 | 0.977 | 1.51 | 1.35 | 8.32 | 9.12
COc1ccc2c(c1)C(=O)c1c-2n(CCCCl)c(=O)c2cc([N+](=O)[O-])ccc12 | 0.036 | < 0.01 | 3.39 | < 0.01 | 0.794 | 0.027 | 0.295 | 3.24
